From patent US10231453B2, “5-substituted imidazole derivatives” (BAYER CROPSCIENCE AKTIENGESELLSCHAFT, priority 2015, dated 2019)
Like-named read-outs stand apart in the source and are kept apart here.

Key:
Botrytis cinerea = test: In vivo preventive test on Botrytis cinerea (grey mould) on gherkin, Examples B, Q1 and R2; details: for pest or weed control at 500 ppm / pest or weed control at 100 ppm: Botrytis cinerea
[1] = Measurement of LogP values by HPLC on reversed phase columns (EEC directive 79/831 Annex V.A8); format: physicochemical; details: method [a]: LC-UV, acidic range, 0.1% formic acid in water and acetonitrile as eluent; Table 1
Description: Measurement of Log P values was performed as outlined above.

Uromyces appendiculatus = test: In vivo preventive test on Uromyces appendiculatus (bean rust), Examples G and R7; details: 264 h, 500 ppm of active ingredient, bean, preventive spray, evaluated 11 days after inoculation, read-out: efficacy
Puccinia recondita = test: In vivo preventive test on Puccinia recondita (brown rust on wheat), Examples C and R3; details: Puccinia recondita, 264 h; 500 ppm of active ingredient; wheat, preventive spray, evaluated 11 days after inoculation; read-out: efficacy
Sphaerotheca fuliginea = test: In vivo preventive test on Sphaerotheca fuliginea (powdery mildew on cucurbits), Examples F and R6; details: Podosphaera fuliginea, 360 h; 500 ppm of active ingredient; gherkin, preventive spray, evaluated 15 days after inoculation; read-out: efficacy
Septoria tritici = test: In vivo preventive test on Septoria tritici (leaf spot on wheat), Examples E, Q3 and R5; details: Zymoseptoria tritici, 576 h, 500 ppm of active ingredient; wheat, preventive spray, evaluated 24 days after inoculation; read-out: efficacy
Pyrenophora teres = test: In vivo preventive test on Pyrenophora teres (net blotch on barley), Examples D, Q2 and R4; details: Pyrenophora teres, 336 h, 500 ppm of active ingredient, preventive spray, evaluated 14 days after inoculation, read-out: efficacy
[2] = Example R2, rate of application 100 ppm
[3] = Example R2, rate of application 500 ppm
[4] = 500 ppm of active ingredient, preventive spray, evaluated 4 to 5 days after inoculation, read-out: efficacy
[5] = Example R2, rate of application 100 ppm, read-out: Efficacy in %
[6] = Example R2, rate of application 500 ppm, read-out: Efficacy in %

Row | SMILES | Efficacy in % (Botrytis cinerea; [2]) | Efficacy in % (Botrytis cinerea; [3]) | chromatographic logP [1] | pest or weed control at 500 ppm (Uromyces appendiculatus) | pest or weed control at 500 ppm (Puccinia recondita) | pest or weed control at 500 ppm (Sphaerotheca fuliginea) | pest or weed control at 500 ppm (Septoria tritici) | pest or weed control at 500 ppm (Pyrenophora teres) | pest or weed control at 500 ppm (Botrytis cinerea; [4]) | pest or weed control at 100 ppm (Botrytis cinerea; [5]) | pest or weed control at 500 ppm (Botrytis cinerea; [6])
1 | OC(Cc1ccc(Cl)cc1F)(Cn1cnc(Br)c1)C1(Cl)CC1 (racemic) [drawing 79, reference compound] | 0% | 19% | – | – | – | – | – | – | – | – | –
2 | N#Cc1cn(CC(O)(Cc2ccc(Cl)cc2F)C2(Cl)CC2)cn1 (racemic) [drawing 81, reference compound] | 0% | 0% | – | – | – | – | – | – | – | – | –
3 | OC(Cc1ccc(Cl)cc1F)(Cn1cnc(Cl)c1)C1(Cl)CC1 (racemic) [drawing 83, reference compound] | 0% | 0% | – | – | – | – | – | – | – | – | –
4 | OC(Cc1cccnc1Cl)(Cn1cncc1Cl)C1(Cl)CC1 (stereo not shown) [Example I-07] | – | – | 1.57 | 90 to 100% | 80 to 89% | 90 to 100% | 90 to 100% | 70 to 79% | – | – | –
5 | OC(Cc1ccccc1Cl)(Cn1cncc1I)C1(Cl)CC1 (stereo not shown) [Example I-14] | – | – | 2.14 | 90 to 100% | 80 to 89% | 90 to 100% | 90 to 100% | 80 to 89% | 90 to 100% | – | –
6 | N#CCc1cncn1CC(O)(Cc1ccccc1Cl)C1(Cl)CC1 (stereo not shown) [Example I-21] | – | – | 1.66 | 70 to 79% | 80 to 89% | 90 to 100% | 70 to 79% | – | 90 to 100% | – | –
7 | N#Cc1cncn1CC(O)(Cc1cccc(Br)c1)C1(Cl)CC1 (stereo not shown) [Example I-45] | – | – | – | 90 to 100% | 90 to 100% | 90 to 100% | 90 to 100% | 80 to 89% | 80 to 89% | – | –
8 | N#Cc1cncn1CC(O)(Cc1cc(Cl)ncc1Cl)C1(Cl)CC1 (stereo not shown) [Example I-56] | – | – | 2.62 | 90 to 100% | 80 to 89% | 90 to 100% | 90 to 100% | 70 to 79% | – | – | –
9 | Cc1cccc(CC(O)(Cn2cncc2C#N)C2(Cl)CC2)c1 (stereo not shown) [Example I-59] | – | – | – | 90 to 100% | 80 to 89% | 90 to 100% | 90 to 100% | – | 90 to 100% | – | –
10 | Cc1ccccc1CC(O)(Cn1cncc1Cl)C1(Cl)CC1 (stereo not shown) [Example I-71] | – | – | 2.33 | 90 to 100% | 90 to 100% | 90 to 100% | 90 to 100% | 90 to 100% | 90 to 100% | – | –
11 | Cc1cccc(CC(O)(Cn2cncc2Cl)C2(Cl)CC2)c1 (stereo not shown) [Example I-73] | – | – | – | – | 80 to 89% | 90 to 100% | 80 to 89% | 80 to 89% | 90 to 100% | – | –
12 | Cc1ccc(CC(O)(Cn2cncc2Cl)C2(Cl)CC2)cc1 (stereo not shown) [Example I-76] | – | – | – | – | 90 to 100% | 90 to 100% | 90 to 100% | 90 to 100% | 90 to 100% | – | –
13 | OC(Cc1ccc(Cl)cc1)(Cn1cncc1Cl)C1(Cl)CC1 (stereo not shown) [Example I-77] | – | – | – | 90 to 100% | 80 to 89% | 90 to 100% | 90 to 100% | 80 to 89% | 90 to 100% | – | –
14 | CC1(C(O)(Cc2ccccc2Cl)Cn2cncc2C#N)CC1 (stereo not shown) [Example I-79] | – | – | 2.87 | 90 to 100% | 90 to 100% | 90 to 100% | 90 to 100% | 90 to 100% | 90 to 100% | – | –
15 | CC(C)C(O)(Cc1ccccc1Cl)Cn1cncc1C#N (stereo not shown) [Example I-82] | – | – | 2.67 | 90 to 100% | 90 to 100% | 90 to 100% | 90 to 100% | 80 to 89% | 90 to 100% | – | –
16 | N#Cc1cncn1CC(O)(Cc1cccc(Cl)c1Cl)C1CCC1 (stereo not shown) [Example I-85] | – | – | 3.31 | 90 to 100% | 90 to 100% | 90 to 100% | 90 to 100% | 80 to 89% | – | – | –
17 | Cc1ccc(CC(O)(Cn2cncc2Cl)C2(Cl)CC2)c(F)c1 (stereo not shown) [Example I-108] | – | – | 2.34 | – | 90 to 100% | 90 to 100% | 90 to 100% | 90 to 100% | 90 to 100% | – | –

Row | SMILES | Efficacy in % (Botrytis cinerea; [2]) | Efficacy in % (Botrytis cinerea; [3]) | chromatographic logP [1] | pest or weed control at 500 ppm (Uromyces appendiculatus) | pest or weed control at 500 ppm (Puccinia recondita) | pest or weed control at 500 ppm (Sphaerotheca fuliginea) | pest or weed control at 500 ppm (Septoria tritici) | pest or weed control at 500 ppm (Pyrenophora teres) | pest or weed control at 500 ppm (Botrytis cinerea; [4]) | pest or weed control at 100 ppm (Botrytis cinerea; [5]) | pest or weed control at 500 ppm (Botrytis cinerea; [6])
18 | OC(Cc1ccc(F)c(F)c1)(Cn1cncc1Cl)C1(Cl)CC1 (stereo not shown) [Example I-110] | – | – | 2.23 | 90 to 100% | 80 to 89% | 90 to 100% | 80 to 89% | 90 to 100% | 90 to 100% | – | –
19 | CC(C)C(O)(Cc1ccc(Cl)cc1F)Cn1cncc1C#N (stereo not shown) [Example I-118] | – | – | 2.91 | 90 to 100% | 90 to 100% | 90 to 100% | 70 to 79% | 70 to 79% | 90 to 100% | – | –
20 | COC(Cc1ccc(Cl)cc1F)(Cn1cncc1C#N)C1CC1 (stereo not shown) [Example I-121] | – | – | 3.31 | 90 to 100% | 80 to 89% | 90 to 100% | 90 to 100% | 70 to 79% | – | – | –
21 | CC1(C(O)(Cc2ccc(F)cc2F)Cn2cncc2C#N)CC1 (stereo not shown) [Example I-124] | – | – | 2.65 | 90 to 100% | 90 to 100% | 90 to 100% | 90 to 100% | 90 to 100% | 90 to 100% | – | –
22 | CC(C)C(O)(Cc1ccc(F)cc1F)Cn1cncc1C#N (stereo not shown) [Example I-128] | – | – | 2.52 | 90 to 100% | 90 to 100% | 90 to 100% | 90 to 100% | – | 90 to 100% | – | –
23 | N#Cc1cncn1CC(O)(Cc1ccc(F)cc1F)CC1CC1 (stereo not shown) [Example I-130] | – | – | 2.69 | 90 to 100% | 90 to 100% | 90 to 100% | 90 to 100% | 70 to 79% | 90 to 100% | – | –
24 | N#Cc1cncn1CC(O)(Cc1ccccc1F)C1CCC1 (stereo not shown) [Example I-137] | – | – | 2.46 | 90 to 100% | 80 to 89% | 90 to 100% | 90 to 100% | – | 70 to 79% | – | –
25 | CC(C)C(O)(Cc1cccc(F)c1F)Cn1cncc1C#N (stereo not shown) [Example I-149] | – | – | 2.47 | 90 to 100% | 90 to 100% | 90 to 100% | 80 to 89% | – | 70 to 79% | – | –
26 | N#Cc1cncn1CC(O)(Cc1cccc(F)c1F)CC1CC1 (stereo not shown) [Example I-151] | – | – | 2.66 | 90 to 100% | 80 to 89% | 90 to 100% | 90 to 100% | 70 to 79% | – | – | –
27 | N#Cc1cncn1CC(O)(Cc1ccccc1I)C1(Cl)CC1 (stereo not shown) [Example I-166] | – | – | 3.13 | 90 to 100% | 90 to 100% | 90 to 100% | 70 to 79% | 80 to 89% | – | – | –
28 | OC(Cc1ccccc1I)(Cn1cncc1Cl)C1(Cl)CC1 (stereo not shown) [Example I-167] | – | – | – | 90 to 100% | 80 to 89% | 90 to 100% | – | 80 to 89% | 90 to 100% | – | –
29 | OC(Cc1ccccc1Cl)(Cn1cnc(Br)c1)C1(Cl)CC1 (stereo not shown) [drawing 70, reference compound] | – | – | – | – | – | – | – | – | – | 5% | 0%
30 | N#Cc1cn(CC(O)(Cc2ccccc2Cl)C2(Cl)CC2)cn1 (stereo not shown) [drawing 72, reference compound] | – | – | – | – | – | – | – | – | – | 0% | 0%
31 | C#Cc1cn(CC(O)(Cc2ccccc2F)C2(Cl)CC2)cn1 (stereo not shown) [drawing 74, reference compound] | – | – | – | – | – | – | – | – | – | 0% | 0%
32 | OC(Cc1ccccc1F)(Cn1cnc(Cl)c1)C1(Cl)CC1 (stereo not shown) [drawing 76, reference compound] | – | – | – | – | – | – | – | – | – | 0% | 0%
33 | OC(Cc1ccccc1F)(Cn1ccnc1Cl)C1(Cl)CC1 (stereo not shown) [drawing 77, reference compound] | – | – | – | – | – | – | – | – | – | 0% | 0%
34 | N#Cc1cn(CC(O)(Cc2ccccc2F)C2(Cl)CC2)cn1 (stereo not shown) [drawing 85, reference compound] | – | – | – | – | – | – | – | – | – | 0% | 0%
